Measured values: US4294849A, “Prostaglandin analogues” (Warner-Lambert Company, priority 1979, dated 1981)

How the values were obtained:
isolated rabbit hearts = test: coronary vasodilator activity on isolated rabbit hearts; conditions: for Vasodilator Activity Rabbit, relative to PGE1 taken as 1: relative to PGE1 = 1; for coronary vasodilator activity, times as potent as PGE1: isolated rabbit hearts, vs PGE1
[1] = system: blood platelet aggregation; test: inhibitory activity on adenosine diphosphate-induced blood platelet aggregation in platelet-rich plasma of humans; assay type: cell-based, human; conditions: for Inhibitory Activity on Blood Platelet Aggregation Human, relative to PGE1 taken as 1: relative to PGE1 = 1; for inhibitory activity on adenosine diphosphate-induced blood platelet aggregation, times as potent as PGE1: human platelet-rich plasma, vs PGE1
[2] = system: blood platelet aggregation; test: inhibitory activity on adenosine diphosphate-induced blood platelet aggregation in platelet-rich plasma of rats; assay type: cell-based, rat; conditions: for Inhibitory Activity on Blood Platelet Aggregation Rat, relative to PGE1 taken as 1: relative to PGE1 = 1; for inhibitory activity on adenosine diphosphate-induced blood platelet aggregation, times as potent as PGE1: rat platelet-rich plasma, vs PGE1
dogs = test: hypotensive activity, intravenous administration to allobarbital-anaesthetised dogs; assay type: in vivo, dog; conditions: for Hypotensive Activity Dog (i.v.), relative to PGE1 taken as 1: relative to PGE1 = 1; for useful activities (hypotensive, blood platelet aggregation inhibitory, vasodilator): in words, summary of the Table; for hypotensive activity, times as potent as PGE1: intravenous, allobarbital-anaesthetised dogs, vs PGE1
mice = conditions: mouse, in vivo; for Diarrhoea-inducing Activity Mice (p.o.), relative to PGE1 taken as 1 / diarrhoea-inducing activity compared with PGE1: po
[3] = system: spontaneously hypertensive rats; test: hypotensive activity, oral administration to conscious spontaneously hypertensive rats; assay type: in vivo, rat; conditions: for Hypotensive Activity Rat (p.o.), relative to PGE1 taken as 1: relative to PGE1 = 1; for hypotensive activity, times as potent as PGE1: oral, conscious spontaneously hypertensive rats, vs PGE1
Excerpt: In the Table, all the activities are indicated relative to the activity of PGE1, taken as 1.

[4] = acute toxicity tests, intravenous or oral administration to mice; conditions: mouse, in vivo
Method: Acute toxicity tests on the compounds of the present invention were conducted by administering them intravenously or orally to mice.

SMILES | Diarrhoea-inducing Activity Mice (p.o.), relative to PGE1 taken as 1 (mice) | Vasodilator Activity Rabbit, relative to PGE1 taken as 1 (isolated rabbit hearts) | Inhibitory Activity on Blood Platelet Aggregation Human, relative to PGE1 taken as 1 [1] | Inhibitory Activity on Blood Platelet Aggregation Rat, relative to PGE1 taken as 1 [2] | Hypotensive Activity Dog (i.v.), relative to PGE1 taken as 1 (dogs) | Hypotensive Activity Rat (p.o.), relative to PGE1 taken as 1 [3] | hypotensive activity, times as potent as PGE1 [3] [times] | coronary vasodilator activity, times as potent as PGE1 (isolated rabbit hearts) [times] | inhibitory activity on adenosine diphosphate-induced blood platelet aggregation, times as potent as PGE1 [1] [times] | inhibitory activity on adenosine diphosphate-induced blood platelet aggregation, times as potent as PGE1 [2] [times] | LD50 ([4]; intravenous administration) [mg/kg] | LD50 ([4]; oral administration) [mg/kg] | useful activities (hypotensive, blood platelet aggregation inhibitory, vasodilator) (dogs) | hypotensive activity, times as potent as PGE1 (dogs) [times] | diarrhoea-inducing (side-effect) activity compared with the known compounds (mice) | diarrhoea-inducing activity compared with PGE1 (mice)
CCCC[C@@H](C)[C@H](O)/C=C/[C@H]1[C@H](O)CC(=O)[C@@H]1CCCC/C=C/C(=O)O [A, 9-oxo-11α,15α-dihydroxy-16R-methylprosta-trans-2,trans-13-dienoic acid, reference compound] | 270.6 | 2-3 | 1.6 | 2.84 | 9.5 |  |  |  |  |  |  |  |  |  |  | 
CC(c1ccccc1)[C@H](O)/C=C/[C@H]1[C@H](O)CC(=O)[C@@H]1CCCC/C=C/C(=O)O (stereo partly drawn) [C, 9-oxo-11α,15α-dihydroxy-16-phenyl-18,19,20-trinorprosta-trans-2,trans-13-dienoic acid, reference compound] | 11.9 | 0.3 |  |  | 39.0 |  |  |  |  |  |  |  |  |  |  | 
CCCCCC(CC)C[C@H](O)/C=C/[C@H]1[C@H](O)CC(=O)[C@@H]1CCCC/C=C/C(=O)OC (stereo partly drawn) [E, methyl 9-oxo-11α,15α-dihydroxy-17,20-diethylprosta-trans-2,trans-13-dienoate, reference compound] | 1.7 | 0.1 | 0.14 | 2.2 | 0.88 | 10 |  |  |  |  |  |  |  |  |  | 
CCCC[C@H](C)C[C@H](O)/C=C/[C@H]1[C@H](O)CC(=O)[C@@H]1CCCC/C=C/C(=O)O [F, 9-oxo-11α,15α-dihydroxy-17S,20-dimethylprosta-trans-2,trans-13-dienoic acid] | < 1 | 19.0 | 38.5 | 81.6 | 10.0 | 100 | 100 | 19.0 | 38.5 | 81.6 | ~12 | ~50 | extremely strong | 10 | weaker | lower diarrhoea-inducing activity than PGE1
CCCC[C@H](C)C[C@H](O)/C=C/[C@H]1[C@H](O)CC(=O)[C@@H]1CCCC/C=C/C(=O)OC [H, methyl 9-oxo-11α,15α-dihydroxy-17S,20-dimethylprosta-trans-2,trans-13-dienoate] | < 1 |  |  |  | 5.0 | 100 | 100 |  |  |  |  |  | extremely strong | 5 | weaker | lower diarrhoea-inducing activity than PGE1

Now from value to molecule, other results behind:

Diarrhoea-inducing Activity Mice (p.o.), relative to PGE1 taken as 1 (mice) | SMILES | Vasodilator Activity Rabbit, relative to PGE1 taken as 1 (isolated rabbit hearts) | Inhibitory Activity on Blood Platelet Aggregation Human, relative to PGE1 taken as 1 [1] | Inhibitory Activity on Blood Platelet Aggregation Rat, relative to PGE1 taken as 1 [2] | Hypotensive Activity Dog (i.v.), relative to PGE1 taken as 1 (dogs) | Hypotensive Activity Rat (p.o.), relative to PGE1 taken as 1 [3] | hypotensive activity, times as potent as PGE1 [3] [times] | coronary vasodilator activity, times as potent as PGE1 (isolated rabbit hearts) [times] | inhibitory activity on adenosine diphosphate-induced blood platelet aggregation, times as potent as PGE1 [1] [times] | inhibitory activity on adenosine diphosphate-induced blood platelet aggregation, times as potent as PGE1 [2] [times] | LD50 ([4]; intravenous administration) [mg/kg] | LD50 ([4]; oral administration) [mg/kg] | useful activities (hypotensive, blood platelet aggregation inhibitory, vasodilator) (dogs) | hypotensive activity, times as potent as PGE1 (dogs) [times] | diarrhoea-inducing (side-effect) activity compared with the known compounds (mice) | diarrhoea-inducing activity compared with PGE1 (mice)
< 1 | CCCC(CC)C[C@H](O)/C=C/[C@H]1[C@H](O)CC(=O)[C@@H]1CCCC/C=C/C(=O)O (stereo partly drawn) [B, 9-oxo-11α,15α-dihydroxy-17-ethylprosta-trans-2,trans-13-dienoic acid, reference compound] | 1.0 | 22.1 | 14.5 | 1.5 | 10 |  |  |  |  |  |  |  |  |  | 
3.2 | CCCCCC(CC)C[C@H](O)/C=C/[C@H]1[C@H](O)CC(=O)[C@@H]1CCCC/C=C/C(=O)O (stereo partly drawn) [D, 9-oxo-11α,15α-dihydroxy-17,20-diethylprosta-trans-2,trans-13-dienoic acid, reference compound] | < 0.1 | 2.4 | 1.4 | 1.45 | 30-100 |  |  |  |  |  |  |  |  |  | 
< 1 | CCCC[C@@H](C)C[C@H](O)/C=C/[C@H]1[C@H](O)CC(=O)[C@@H]1CCCC/C=C/C(=O)O [G, 9-oxo-11α,15α-dihydroxy-17R,20-dimethylprosta-trans-2,trans-13-dienoic acid] | 14.0 | 48.1 | 70.5 | 3.5 |  |  | 14.0 | 48.1 | 70.5 |  |  | extremely strong | 3.5 | weaker | lower diarrhoea-inducing activity than PGE1
